Results reported in BindingDB's records for doi:10.1038/sj.npp.1300203 (Case Western Reserve University, 2003).

Columns and labels:
Histamine H3 receptor = Histamine H3 receptor (Cavia porcellus, UniProt Q9JI35)
[1] = biological target: Prostaglandin E2 receptor EP4 subtype (Homo sapiens, UniProt P35408)
Histamine H4 receptor = Histamine H4 receptor (Homo sapiens, UniProt Q9H3N8)
[2] = biological target: Protein kinase C gamma type (Homo sapiens, UniProt P05129)
[3] = biological target: Protein kinase C alpha type (Homo sapiens, UniProt P17252)
[4] = biological target: T1, Prostaglandin E2 receptor EP3 subtype (Homo sapiens, UniProt P43115)
T1 sequence (P43115 whole entry): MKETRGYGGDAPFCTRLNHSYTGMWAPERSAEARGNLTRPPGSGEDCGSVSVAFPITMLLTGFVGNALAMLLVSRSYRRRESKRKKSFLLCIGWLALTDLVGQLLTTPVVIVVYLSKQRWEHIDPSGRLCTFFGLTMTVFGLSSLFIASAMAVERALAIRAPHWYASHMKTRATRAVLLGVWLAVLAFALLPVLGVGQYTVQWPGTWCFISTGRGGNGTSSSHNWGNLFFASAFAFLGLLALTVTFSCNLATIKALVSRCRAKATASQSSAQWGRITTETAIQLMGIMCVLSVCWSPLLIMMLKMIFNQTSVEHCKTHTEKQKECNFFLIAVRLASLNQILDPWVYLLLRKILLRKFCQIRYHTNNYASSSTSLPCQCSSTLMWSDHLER

[5] = biological target: T2, 5-hydroxytryptamine receptor 3A (Rattus norvegicus, UniProt P35563)
T2 sequence (P35563 whole entry): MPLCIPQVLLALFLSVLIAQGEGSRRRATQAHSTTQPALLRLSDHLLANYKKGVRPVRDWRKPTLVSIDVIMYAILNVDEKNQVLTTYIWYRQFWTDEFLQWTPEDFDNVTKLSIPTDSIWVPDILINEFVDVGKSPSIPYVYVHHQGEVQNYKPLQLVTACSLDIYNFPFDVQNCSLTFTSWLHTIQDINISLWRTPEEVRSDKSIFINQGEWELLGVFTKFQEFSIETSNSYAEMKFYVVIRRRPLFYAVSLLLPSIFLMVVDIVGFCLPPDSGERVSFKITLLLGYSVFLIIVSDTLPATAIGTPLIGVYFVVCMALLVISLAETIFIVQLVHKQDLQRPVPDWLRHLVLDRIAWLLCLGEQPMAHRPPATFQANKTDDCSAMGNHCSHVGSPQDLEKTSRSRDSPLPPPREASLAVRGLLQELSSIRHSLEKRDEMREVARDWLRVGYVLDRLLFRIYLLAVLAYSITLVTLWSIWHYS

[6] = biological target: Gamma-aminobutyric acid type B receptor subunit 1 (UniProt Q9Z0U4)
Chain of Gamma-aminobutyric acid type B receptor subunit 1 (Q9Z0U4 whole entry): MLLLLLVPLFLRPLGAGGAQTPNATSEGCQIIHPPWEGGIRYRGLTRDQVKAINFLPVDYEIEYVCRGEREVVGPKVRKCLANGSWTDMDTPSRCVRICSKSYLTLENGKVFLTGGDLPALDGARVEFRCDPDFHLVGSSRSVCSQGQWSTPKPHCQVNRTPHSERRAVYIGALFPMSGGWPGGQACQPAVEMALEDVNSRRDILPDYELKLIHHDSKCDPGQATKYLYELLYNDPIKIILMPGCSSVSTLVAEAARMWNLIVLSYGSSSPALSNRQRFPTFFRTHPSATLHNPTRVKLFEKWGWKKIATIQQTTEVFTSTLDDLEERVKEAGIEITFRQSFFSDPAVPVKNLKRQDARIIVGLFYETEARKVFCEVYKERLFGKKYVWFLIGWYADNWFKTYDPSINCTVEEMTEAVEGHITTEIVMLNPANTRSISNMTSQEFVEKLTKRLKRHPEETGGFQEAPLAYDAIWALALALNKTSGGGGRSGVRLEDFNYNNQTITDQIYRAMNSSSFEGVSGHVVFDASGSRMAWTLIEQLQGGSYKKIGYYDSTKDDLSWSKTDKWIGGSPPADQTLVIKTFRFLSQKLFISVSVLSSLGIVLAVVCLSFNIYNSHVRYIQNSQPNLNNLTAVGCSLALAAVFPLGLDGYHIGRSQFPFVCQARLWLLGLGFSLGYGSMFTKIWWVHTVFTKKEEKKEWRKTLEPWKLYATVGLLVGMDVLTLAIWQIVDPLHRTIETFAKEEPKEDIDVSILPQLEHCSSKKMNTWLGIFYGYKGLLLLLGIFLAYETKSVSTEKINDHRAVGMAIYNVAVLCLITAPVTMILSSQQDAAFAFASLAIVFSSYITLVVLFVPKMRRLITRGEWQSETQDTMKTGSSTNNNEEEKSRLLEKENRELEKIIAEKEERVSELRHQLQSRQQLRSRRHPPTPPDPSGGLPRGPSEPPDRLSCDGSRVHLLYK

Chain of Histamine H4 receptor (Q9H3N8 whole entry): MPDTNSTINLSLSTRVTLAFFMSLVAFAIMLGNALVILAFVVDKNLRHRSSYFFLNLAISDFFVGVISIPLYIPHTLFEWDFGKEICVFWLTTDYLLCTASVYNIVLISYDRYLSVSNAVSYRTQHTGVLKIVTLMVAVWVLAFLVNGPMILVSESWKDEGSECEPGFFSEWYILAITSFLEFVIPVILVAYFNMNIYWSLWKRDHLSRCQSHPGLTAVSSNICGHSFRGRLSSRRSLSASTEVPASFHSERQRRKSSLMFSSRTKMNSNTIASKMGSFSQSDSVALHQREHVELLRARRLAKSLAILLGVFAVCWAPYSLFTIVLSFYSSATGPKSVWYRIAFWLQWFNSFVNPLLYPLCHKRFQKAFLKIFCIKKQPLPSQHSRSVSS
Chain of Histamine H3 receptor (Q9JI35 whole entry): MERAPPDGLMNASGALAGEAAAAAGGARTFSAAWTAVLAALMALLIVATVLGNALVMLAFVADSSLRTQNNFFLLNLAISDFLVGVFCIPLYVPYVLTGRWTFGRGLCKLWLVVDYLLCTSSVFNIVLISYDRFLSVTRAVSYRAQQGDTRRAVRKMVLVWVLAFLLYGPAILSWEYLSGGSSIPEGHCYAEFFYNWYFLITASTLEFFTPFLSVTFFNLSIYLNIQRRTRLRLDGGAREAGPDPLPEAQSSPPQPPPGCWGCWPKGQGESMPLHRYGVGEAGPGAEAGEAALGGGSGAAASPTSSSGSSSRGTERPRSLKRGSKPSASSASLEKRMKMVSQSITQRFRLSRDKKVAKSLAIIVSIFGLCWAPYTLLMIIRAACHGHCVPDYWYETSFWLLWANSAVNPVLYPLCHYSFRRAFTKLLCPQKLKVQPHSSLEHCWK
Chain of Prostaglandin E2 receptor EP4 subtype (P35408 whole entry): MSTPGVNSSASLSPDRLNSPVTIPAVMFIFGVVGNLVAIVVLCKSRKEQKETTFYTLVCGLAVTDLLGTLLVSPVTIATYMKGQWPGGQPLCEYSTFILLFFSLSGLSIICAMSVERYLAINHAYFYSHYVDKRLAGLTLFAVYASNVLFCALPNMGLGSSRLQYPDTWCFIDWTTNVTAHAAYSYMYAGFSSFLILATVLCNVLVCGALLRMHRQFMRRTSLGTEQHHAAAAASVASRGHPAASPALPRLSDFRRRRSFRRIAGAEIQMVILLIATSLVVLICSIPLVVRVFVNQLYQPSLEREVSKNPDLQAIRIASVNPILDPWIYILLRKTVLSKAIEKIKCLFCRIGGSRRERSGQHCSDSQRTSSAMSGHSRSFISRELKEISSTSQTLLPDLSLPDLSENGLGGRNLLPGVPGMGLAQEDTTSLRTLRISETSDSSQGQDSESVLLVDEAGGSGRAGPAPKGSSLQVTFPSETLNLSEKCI

O=C1CCc2ccc(OCCCCN3CCN(c4cccc(Cl)c4Cl)CC3)cc2N1 [7-{4-[4-(2,3-dichlorophenyl)piperazin-1-yl]butoxy}-3,4-dihydroquinolin-2(1H)-one]
Ki (Histamine H3 receptor): 0.224 µM
Ki [1]: > 10 µM
Ki (Histamine H4 receptor): > 10 µM
Ki [2]: 8 µM
Ki [3]: > 10 µM
Ki [4]: > 10 µM
Ki [5]: 0.63 µM
Ki [6]: > 10 µM
